Results published in patent publication US20210137961A1, “Compositions and Methods for Treating Dry Eye Diseases” (priority 2017, published 2021).
≈ marks a conversion by molar mass, not a printed value. Read-outs that look alike come from different tables or passages of the source.

What was measured:
Chlamydia trachomatis = experiment: MIC against Chlamydia trachomatis; type: cell-based; settings: N 10
Listeria monocytogenes = experiment: MIC against Listeria monocytogenes; type: cell-based; settings: N 10
CXCL8 = experiment: LPS-induced CXCL8 (IL-8) production in PMA-differentiated U937 cells (ELISA); type: cell-based, human
Method: (§1) EXAMPLE. […] Cells. The human monocytic cell line U937 was obtained from the American Type Culture Collection (ATCC, Rockville, Md.). PBMCs from COPD patients were obtained from Brompton hospital and separated by AccuSPIN (Sigma-Aldrich). […] U937 cells were differentiated into adherent macrophage-like morphology by exposure to PMA (50 ng/ml) for 48 h in complete growth medium. Cell viability was assessed microscopically by trypan blue staining. Cell toxicity was determined by MTT assay as needed. This study was approved by the ethics committee of the Royal Brompton Hospitals, and all subjects gave written informed consent. Cytokine ELISA. TNFα and IL-8 concentrations in the supernatant of cell cultures were determined by sandwich ELISA according to the manufacturer's instructions (R&D Systems Europe, Abingdon, UK). Statistical analysis. The results were expressed as the mean±SEM. Comparisons of data in two groups were performed using the Student's t test or the Wilcoxon signed rank test. Multiple comparisons were made by one-way ANOVA with post hoc test (Dunnett's) as appropriate. The difference was considered significant at p<0.05. […] Anti-inflammatory effects of solithromycin in U937 cells.

[1] = system: L. monocytogenes and S. aureus; experiment: Antibacterial activity at acidic pH compared with Azi; type: cell-based; settings: including L. monocytogenes and S. aureus
[2] = Protein binding in plasma; type: in vitro ADME
S. epidermidis = experiment: MIC against S. epidermidis (30 species); type: cell-based
MSRA = experiment: MIC against MSRA (30 species); type: cell-based
[3] = system: Viridans group streptococci; experiment: MIC against Viridans group streptococci; type: cell-based; settings: N 51
P. acnes = experiment: MIC against P. acnes; type: cell-based
S. pneumoniae = experiment: MIC against S. pneumoniae (30 species); type: cell-based
TNFα = experiment: LPS-induced TNFα production in PMA-differentiated U937 cells (ELISA); type: cell-based, human
Method: as §1

Streptococcus pneumoniae = experiment: MIC against Streptococcus pneumoniae; type: cell-based
[4] = speed of uptake and ultimate tissue concentration
Staphylococcus aureus = experiment: MIC against Staphylococcus aureus; type: cell-based; settings: N 201
Corynebacterium spp. = experiment: MIC against Corynebacterium spp.; type: cell-based; settings: N 10
Peptostreptococcus spp. = experiment: MIC against Peptostreptococcus spp.; type: cell-based; settings: N 10
Mycobacterium avium = experiment: MIC against Mycobacterium avium; type: cell-based; settings: N 30
Chlamydophila pneumoniae = experiment: MIC against Chlamydophila pneumoniae; type: cell-based
Moraxella catarrhalis = experiment: MIC against Moraxella catarrhalis; type: cell-based; settings: N 21
Legionella pneumophila = type: cell-based
MMP9 = MMP9 activity in PMA-stimulated U937 cells (gelatin zymography); type: cell-based, human; settings: PMA stimulation
Method: EXAMPLE. […] Cells. The human monocytic cell line U937 was obtained from the American Type Culture Collection (ATCC, Rockville, Md.). PBMCs from COPD patients were obtained from Brompton hospital and separated by AccuSPIN (Sigma-Aldrich). […] U937 cells were differentiated into adherent macrophage-like morphology by exposure to PMA (50 ng/ml) for 48 h in complete growth medium. Cell viability was assessed microscopically by trypan blue staining. Cell toxicity was determined by MTT assay as needed. This study was approved by the ethics committee of the Royal Brompton Hospitals, and all subjects gave written informed consent. Zymography. MMP9 enzyme activity was measured by gelatin zymography. […] After electrophoresis, gels were incubated and rinsed with Novex® zymogram renaturing buffer (Invitrogen) for 30 min at room temperature. The gels were then rinsed in Novex® zymogram developing buffer (Invitrogen) for 30 min at room temperature prior to overnight incubation in the developing buffer at 37° C. After incubation, the gels were stained using a Colloidal Blue Staining Kit (Invitrogen) to visualize the zymogen bands. Statistical analysis. The results were expressed as the mean±SEM. Comparisons of data in two groups were performed using the Student's t test or the Wilcoxon signed rank test. Multiple comparisons were made by one-way ANOVA with post hoc test (Dunnett's) as appropriate. The difference was considered significant at p<0.05.

[5] = solithromycin and telithromycin at 100 μM, clarithromycin at 333 μM
[6] = Streptococcus pneumoniae, N 150

CC[C@H]1OC(=O)[C@@](C)(F)C(=O)[C@H](C)[C@@H](O[C@@H]2O[C@H](C)C[C@H](N(C)C)[C@H]2O)[C@](C)(OC)C[C@@H](C)C(=O)[C@H](C)[C@H]2N(CCCCn3cc(-c4cccc(N)c4)nn3)C(=O)O[C@]12C [Solithromycin, solithromycin]
MIC50 (Chlamydia trachomatis): 0.25 µg/mL (≈ 0.296 µM)
MIC90 (Chlamydia trachomatis): 0.25 µg/mL (≈ 0.296 µM)
MIC Range (Chlamydia trachomatis): 0.125 to 0.5 µg/mL
MIC50 (Listeria monocytogenes): 0.03 µg/mL (≈ 0.0355 µM)
MIC90 (Listeria monocytogenes): 0.03 µg/mL (≈ 0.0355 µM)
MIC Range (Listeria monocytogenes): 0.03 µg/mL (≈ 0.0355 µM)
IC50 (CXCL8; LPS, PMA-differentiated U937 cells, read-out: IC50 on CXCL8 release): 78.2 ± 9.5 µM
inhibition of CXCL8 (IL-8) production (in words) (CXCL8; [5]): significantly inhibited
activity at acidic pH relative to Azi [1]: 100-200 fold
protein binding in plasma [2]: 86%
I = intermediate susceptibility (S. epidermidis): 3%
MIC50 (S. epidermidis): 0.015 µg/mL (≈ 0.0178 µM)
MIC90 (S. epidermidis): 32 µg/mL (≈ 37.9 µM)
NS = not susceptible (S. epidermidis): 17%
S = susceptible (S. epidermidis): 80%
I = intermediate susceptibility (MSRA): 0%
MIC50 (MSRA): 0.03 µg/mL (≈ 0.0355 µM)
MIC90 (MSRA): 64 µg/mL (≈ 75.7 µM)
NS = not susceptible (MSRA): 30%
S = susceptible (MSRA): 70%
MIC50 [3]: ≤8 ng/mL
MIC90 [3]: 0.06 µg/mL (≈ 0.071 µM)
MIC Range [3]: ≤0.008-0.12 ^ μg/mL
MIC 50% (P. acnes; P. acnes): 0.015 µg/mL (≈ 0.0178 µM)
MIC 90% (P. acnes; P. acnes (51 species)): 0.06 µg/mL (≈ 0.071 µM)
MIC Range (P. acnes; P. acnes (51 species)): ≤2 to 250 ng/mL
I = intermediate susceptibility (S. pneumoniae): 0%
MIC50 (S. pneumoniae): 2 ng/mL (≈ 0.00237 µM)
MIC90 (S. pneumoniae): 0.12 µg/mL (≈ 0.142 µM)
MIC Range (S. pneumoniae): ≤0.001-0.25 ^ μg/ml
NS = not susceptible (S. pneumoniae): 0%
S = susceptible (S. pneumoniae): 100%
IC50 (TNFα; LPS, PMA-differentiated U937 cells, read-out: IC50 on TNFα release): 41.6 ± 1.9 µM
inhibition of TNFα production (in words) (TNFα; [5]): significantly inhibited
MIC90 (Streptococcus pneumoniae; Streptococcus Pneumoniae (150 strains)): 0.25 µg/mL (≈ 0.296 µM)
MIC50 (Streptococcus pneumoniae; [6]): 0.015 µg/mL (≈ 0.0178 µM)
MIC90 (Streptococcus pneumoniae; [6]): 0.25 µg/mL (≈ 0.296 µM)
MIC Range (Streptococcus pneumoniae; [6]): ≤8 to 500 ng/mL
tissue distribution relative to Azi [4]: 10 fold
MIC50 (Staphylococcus aureus): 0.12 µg/mL (≈ 0.142 µM)
MIC90 (Staphylococcus aureus): >16 µg/mL
MIC50 (Corynebacterium spp.): 0.015 µg/mL (≈ 0.0178 µM)
MIC90 (Corynebacterium spp.): 0.5 µg/mL (≈ 0.592 µM)
MIC Range (Corynebacterium spp.): ≤0.008-16 ^ μg/mL
MIC50 (Peptostreptococcus spp.): 0.06 µg/mL (≈ 0.071 µM)
MIC90 (Peptostreptococcus spp.): 0.25 µg/mL (≈ 0.296 µM)
MIC Range (Peptostreptococcus spp.): ≤0.03-0.25^ μg/mL
MIC50 (Mycobacterium avium): 1 µg/mL (≈ 1.18 µM)
MIC90 (Mycobacterium avium): 1 µg/mL (≈ 1.18 µM)
MIC Range (Mycobacterium avium): 1 µg/mL (≈ 1.18 µM)
MIC90 (Chlamydophila pneumoniae; Chlamydophila pneumoniae (10 strains)): 0.25 µg/mL (≈ 0.296 µM)
MIC50 (Chlamydophila pneumoniae; Chlamydophila pneumoniae, N 10): 0.25 µg/mL (≈ 0.296 µM)
MIC90 (Chlamydophila pneumoniae; Chlamydophila pneumoniae, N 10): 0.25 µg/mL (≈ 0.296 µM)
MIC Range (Chlamydophila pneumoniae; Chlamydophila pneumoniae, N 10): 0.25 to 1 µg/mL
MIC50 (Moraxella catarrhalis): 0.12 µg/mL (≈ 0.142 µM)
MIC90 (Moraxella catarrhalis): 0.12 µg/mL (≈ 0.142 µM)
MIC Range (Moraxella catarrhalis): ≤8 to 500 ng/mL
MIC90 (Legionella pneumophila; Legionella pneumophila (30 strains)): ≤0.015 µg/mL
MIC50 (Legionella pneumophila; Legionella pneumophila, N 30): ≤0.015 µg/mL
MIC90 (Legionella pneumophila; Legionella pneumophila, N 30): ≤0.015 µg/mL
MIC Range (Legionella pneumophila; Legionella pneumophila, N 30): ≤0.015 µg/mL
IC50 (MMP9): 14.9 ± 3.1 µM
